Calls of active or inactive are those of the source. How the calls were made is not given here.

In the data set the test system is rodent carcinogenicity bioassays, tumor incidence. Kind of data set: CCRIS carcinogenicity studies. As to conditions: Species: MOUSE. The gist of the method:
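NCI-built, expert-reviewed records of carcinogenicity and related test outcomes (mutagenicity, tumor promotion/inhibition) compiled from published and report sources, historical span 1985-2011, not updated.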

Regarding `c1ccc2c(c1)cc1ccc3cccc4ccc2c1c34`, the carcinogen call is, setting by setting: (Strain/Sex: NIGP(S)/FEMALE, Route: SUBCUTANEOUS, Dose: 0, 0.5, 1 MG IN 1% AQUEOUS GELATIN INJECTED IN THE SCAPULAR REGION OF NEWBORN MICE ONCE (STUDY DURATION: 9 WK), Dose: 0, 0.5, 1 MG IN 1% AQUEOUS GELATIN INJECTED IN THE SCAPULAR REGION OF NEWBORN MICE ONCE (STUDY DURATION: 9 WK), Tumor Site: Type of Lesion: LUNG: ADENOMA) “active; positive”; (Strain/Sex: NIGP(S)/FEMALE, Route: SUBCUTANEOUS, Dose: 0, 40, 62.5, 125, 250, 500, 1000 UG INJECTED IN THE SCAPULAR REGION OF NEWBORN MICE ONCE (STUDY DURATION: 9 WK), Dose: 0, 40, 62.5, 125, 250, 500, 1000 UG INJECTED IN THE SCAPULAR REGION OF NEWBORN MICE ONCE (STUDY DURATION: 9 WK), Tumor Site: Type of Lesion: LUNG: ADENOMA) “active; positive”; (Strain/Sex: NIGP(S)/MALE, Route: SUBCUTANEOUS, Dose: 0, 0.5, 1 MG IN 1% AQUEOUS GELATIN INJECTED IN THE SCAPULAR REGION OF NEWBORN MICE ONCE (STUDY DURATION: 9 WK), Dose: 0, 0.5, 1 MG IN 1% AQUEOUS GELATIN INJECTED IN THE SCAPULAR REGION OF NEWBORN MICE ONCE (STUDY DURATION: 9 WK), Tumor Site: Type of Lesion: LUNG: ADENOMA) “active; positive”; (Strain/Sex: NIGP(S)/MALE, Route: SUBCUTANEOUS, Dose: 0, 40, 62.5, 125, 250, 500, 1000 UG INJECTED IN THE SCAPULAR REGION OF NEWBORN MICE ONCE (STUDY DURATION: 9 WK), Dose: 0, 40, 62.5, 125, 250, 500, 1000 UG INJECTED IN THE SCAPULAR REGION OF NEWBORN MICE ONCE (STUDY DURATION: 9 WK), Tumor Site: Type of Lesion: LUNG: ADENOMA) “active; positive”; (Strain/Sex: SENCAR/FEMALE, Route: DERMAL, Dose: 0, 12.6, 25.2, 50.2, 101, 202 UG/WK FOR 50-52 WK (STUDY DURATION: 1 YR), Dose: 0, 12.6, 25.2, 50.2, 101, 202 UG/WK FOR 50-52 WK (STUDY DURATION: 1 YR), Tumor Site: Type of Lesion: SKIN: CARCINOMA) “active; positive”; (Strain/Sex: SENCAR/MALE, Route: DERMAL, Dose: 0, 12.6, 25.2, 50.5, 101, 202 UG/WK FOR 50-52 WK (STUDY DURATION: 1 YR), Dose: 0, 12.6, 25.2, 50.5, 101, 202 UG/WK FOR 50-52 WK (STUDY DURATION: 1 YR), Tumor Site: Type of Lesion: SKIN: CARCINOMA) “active; positive”. The carcinogen call runs as follows: (Strain/Sex: STRAIN-A/FEMALE, Route: GAVAGE, Dose: 0, 1, 2, 3 UMOL IN 0.1 ML COTTONSEED OIL 1/WK FOR 8 WK (STUDY DURATION: 26 WK), Dose: 0, 1, 2, 3 UMOL IN 0.1 ML COTTONSEED OIL 1/WK FOR 8 WK (STUDY DURATION: 26 WK), Tumor Site: Type of Lesion: LUNG: ADENOMA, FORESTOMACH: TUMOR) “active; positive”; (Strain/Sex: STRAIN-A/FEMALE, Route: INTRAPERITONEAL, Dose: 0, 1, 2, 3 UMOL IN 0.1 ML COTTONSEED OIL 1/WK FOR 8 WK (STUDY DURATION: 26 WK), Dose: 0, 1, 2, 3 UMOL IN 0.1 ML COTTONSEED OIL 1/WK FOR 8 WK (STUDY DURATION: 26 WK), Tumor Site: Type of Lesion: LUNG: ADENOMA, FORESTOMACH: TUMOR) “active; positive”; (Strain/Sex: STRAIN-A/FEMALE, Route: INTRATRACHEAL, Dose: 0, 0.5, 1 MG ON CHARCOAL POWDER INSTILLED 8 TIMES (STUDY DURATION: 13 WK), Dose: 0, 0.5, 1 MG ON CHARCOAL POWDER INSTILLED 8 TIMES (STUDY DURATION: 13 WK), Tumor Site: Type of Lesion: LUNG: SQUAMOUS CELL CARCINOMA OR ADENOCARCINOMA) “active; positive”; (Strain/Sex: STRAIN-A/FEMALE, Route: ORAL, Dose: 0, 16, 98 PPM IN DIET FOR 260 D (STUDY DURATION: 260 D), Dose: 0, 16, 98 PPM IN DIET FOR 260 D (STUDY DURATION: 260 D), Tumor Site: Type of Lesion: LUNG: TUMOR, FORESTOMACH: TUMOR) “active; positive”; (Strain/Sex: STRAIN-A/FEMALE, Route: SUBCUTANEOUS, Dose: 0, 0.5, 1 MG IN 1% AQUEOUS GELATIN INJECTED IN THE SCAPULAR REGION OF NEWBORN MICE ONCE (STUDY DURATION: 9 WK), Dose: 0, 0.5, 1 MG IN 1% AQUEOUS GELATIN INJECTED IN THE SCAPULAR REGION OF NEWBORN MICE ONCE (STUDY DURATION: 9 WK), Tumor Site: Type of Lesion: LUNG: ADENOMA) “active; positive”; (Strain/Sex: STRAIN-A/FEMALE, Route: SUBCUTANEOUS, Dose: 0, 40, 62.5, 125, 250, 500, 1000 UG FOR 9 WK (STUDY DURATION: 9 WK), Dose: 0, 40, 62.5, 125, 250, 500, 1000 UG FOR 9 WK (STUDY DURATION: 9 WK), Tumor Site: Type of Lesion: LUNG: ADENOMA) “active; positive”. For the same molecule, the carcinogen call by setting is: (Strain/Sex: STRAIN-A/FEMALE, Route: SUBCUTANEOUS, Dose: 0, 40, 62.5, 125, 250, 500, 1000 UG INJECTED IN THE SCAPULAR REGION OF NEWBORN MICE ONCE (STUDY DURATION: 9 WK), Dose: 0, 40, 62.5, 125, 250, 500, 1000 UG INJECTED IN THE SCAPULAR REGION OF NEWBORN MICE ONCE (STUDY DURATION: 9 WK), Tumor Site: Type of Lesion: LUNG: ADENOMA) “active; positive”; (Strain/Sex: STRAIN-A/MALE, FEMALE, Route: INTRAPERITONEAL, Dose: 2 MG, 1/WK, Tumor Site: Type of Lesion: PERITONEAL CAVITY: FIBROSARCOMA) “active; positive”; (Strain/Sex: STRAIN-A/MALE,FEMALE, Route: INTRAPERITONEAL, Tumor Site: Type of Lesion: PERITONEAL CAVITY: FIBROSARCOMA) “active; positive”; (Strain/Sex: STRAIN-A/MALE, Route: INTRAPERITONEAL, Dose: 0-200 MG/KG IN TRICAPRYLIN ONCE (STUDY DURATION: 8 MO), Tumor Site: Type of Lesion: LUNG: ADENOMA) “active; positive”; (Strain/Sex: STRAIN-A/MALE, Route: INTRAPERITONEAL, Dose: 0, 5, 10, 50, 100, 200 MG/KG BW ONCE (STUDY DURATION: 8 MO), Dose: 0, 5, 10, 50, 100, 200 MG/KG BW ONCE (STUDY DURATION: 8 MO), Tumor Site: Type of Lesion: LUNG: ADENOMA) “active; positive”; (Strain/Sex: STRAIN-A/MALE, Route: SUBCUTANEOUS, Dose: 0, 0.5, 1 MG IN 1% AQUEOUS GELATIN INJECTED IN THE SCAPULAR REGION OF NEWBORN MICE ONCE (STUDY DURATION: 9 WK), Dose: 0, 0.5, 1 MG IN 1% AQUEOUS GELATIN INJECTED IN THE SCAPULAR REGION OF NEWBORN MICE ONCE (STUDY DURATION: 9 WK), Tumor Site: Type of Lesion: LUNG: ADENOMA) “active; positive”. Further, the carcinogen call is, setting by setting: (Strain/Sex: STRAIN-A/MALE, Route: SUBCUTANEOUS, Dose: 0, 40, 62.5, 125, 250, 500, 1000 UG FOR 9 WK (STUDY DURATION: 9 WK), Dose: 0, 40, 62.5, 125, 250, 500, 1000 UG FOR 9 WK (STUDY DURATION: 9 WK), Tumor Site: Type of Lesion: LUNG: ADENOMA) “active; positive”; (Strain/Sex: STRAIN-A/MALE, Route: SUBCUTANEOUS, Dose: 0, 40, 62.5, 125, 250, 500, 1000 UG INJECTED IN THE SCAPULAR REGION OF NEWBORN MICE ONCE (STUDY DURATION: 9 WK), Dose: 0, 40, 62.5, 125, 250, 500, 1000 UG INJECTED IN THE SCAPULAR REGION OF NEWBORN MICE ONCE (STUDY DURATION: 9 WK), Tumor Site: Type of Lesion: LUNG: ADENOMA) “active; positive”; (Strain/Sex: SWISS/FEMALE, Route: DERMAL, Dose: 0, 1, 4, 8 NMOL IN 100 µL ACETONE 2/WK FOR 40 WK (STUDY DURATION: 48 WK), Dose: 0, 1, 4, 8 NMOL IN 100 µL ACETONE 2/WK FOR 40 WK (STUDY DURATION: 48 WK)) “inactive; negative”.

Source of the values: PubChem BioAssay AID1259411 (Chemical Carcinogenesis Research Information System (CCRIS), 2018).
